Calls of active or inactive are those of the source.

For assay [1], the target named is T1, Mannose-6-phosphate isomerase (Homo sapiens, UniProt P34949).
T1 sequence (P34949 whole entry): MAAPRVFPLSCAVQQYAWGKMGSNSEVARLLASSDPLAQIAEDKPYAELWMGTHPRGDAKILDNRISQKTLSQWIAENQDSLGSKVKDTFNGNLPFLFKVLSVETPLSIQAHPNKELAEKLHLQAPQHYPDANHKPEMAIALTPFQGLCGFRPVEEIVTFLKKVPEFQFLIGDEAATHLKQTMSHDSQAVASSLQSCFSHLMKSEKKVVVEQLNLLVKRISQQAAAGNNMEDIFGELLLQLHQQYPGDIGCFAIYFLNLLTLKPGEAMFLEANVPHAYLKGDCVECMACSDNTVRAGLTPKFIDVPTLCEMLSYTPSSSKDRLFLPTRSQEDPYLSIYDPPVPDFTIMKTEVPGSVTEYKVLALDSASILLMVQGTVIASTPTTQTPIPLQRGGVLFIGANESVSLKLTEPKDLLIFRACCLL
The experiment in a line: inhibitors of human PMI, primary screen, biochemical, fluorescence intensity, coupled assay (AID 1209).

Assay [2] addresses T1, Mannose-6-phosphate isomerase. The experiment in a line: human PMI inhibitors, high substrate, primary screen, biochemical, fluorescence intensity, high mannose 6-phosphate (AID 1220).
Assay [3] concerns the target Sphingosine 1-phosphate receptor 1 (Homo sapiens, UniProt P21453). It counts as functional.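 Also: Tango beta-arrestin reporter U2OS cells stimulated with S1P near its EC80; inhibitor potency meaning antagonism of receptor activation by the natural agonist.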
Assay [4] can be described thus: cytotoxicity toward DRD oncogenic fibroblasts, dose response, cell-based, non-viral oncogenic, luminescence (AID 1934). It counts as functional. The conditions noted are these: Homo sapiens.
A further assay concerns INS1. The experiment in a line: beta cell apoptosis inhibitors, cytokine rescue, dose response, luminescence, retest (AID 449756).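 Also: cell death triggered by IL-1 beta plus TNF-alpha plus IFN-gamma mixture; protective hits raise ATP signal compared with cytokine alone wells.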 The conditions noted are these: Rattus norvegicus. It counts as functional, cell-based.
Assay [5] has as its system BJ. The experiment in a line: cells. It counts as functional, cell-based. The conditions noted are these: Homo sapiens.
Assay [6] has as its target T2, Heat shock factor protein 1 (Mus musculus, UniProt P38532).
T2 sequence (P38532 whole entry): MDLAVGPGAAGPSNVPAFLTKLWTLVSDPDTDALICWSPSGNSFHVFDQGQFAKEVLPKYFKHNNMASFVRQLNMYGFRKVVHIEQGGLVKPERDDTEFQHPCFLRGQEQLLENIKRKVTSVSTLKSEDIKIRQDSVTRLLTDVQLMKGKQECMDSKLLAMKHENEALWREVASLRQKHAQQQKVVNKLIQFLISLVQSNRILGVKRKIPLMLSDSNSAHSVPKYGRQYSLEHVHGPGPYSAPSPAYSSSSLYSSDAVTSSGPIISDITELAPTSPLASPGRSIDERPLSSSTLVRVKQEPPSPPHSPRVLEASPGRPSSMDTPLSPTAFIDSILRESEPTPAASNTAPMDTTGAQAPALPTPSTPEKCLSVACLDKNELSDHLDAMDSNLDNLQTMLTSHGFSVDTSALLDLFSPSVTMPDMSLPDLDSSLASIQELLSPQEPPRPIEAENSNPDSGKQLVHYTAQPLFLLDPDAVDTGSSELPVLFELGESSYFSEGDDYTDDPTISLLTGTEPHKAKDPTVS
The experiment in a line: inhibition of MG132-induced HSE-luciferase signal, confirmation, cell-based, NIH3T3, luminescence, dose retest (AID 2382).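 Also: NIH3T3 fibroblasts with HSF1-driven luciferase reporter stressed by proteasome inhibitor MG132; luminescence from HSF1-driven luciferase expression after 8 hours of MG132 stress.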 It counts as functional.

Assay [7] concerns BJ. Put plainly: cytotoxicity toward Ras-transformed BJeLR fibroblasts, dose response, cell-based, alamar blue fluorescence, cherrypicked samples (AID 2631).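 Also: confirmatory dose-response assay in RAS-dependent BJ fibroblasts engineered with TERT, LT and ST, with cytotoxicity read by fluorescence.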 It counts as functional. Conditions: Homo sapiens. Background: Resazurin is reduced to fluorescent resorufin, in cell work by metabolically active cells.
For assay [8], the system named is BJ. Put plainly: cytotoxicity toward BJ-TERT fibroblasts, dose response, cell-based, RAS-independent, luminescence (AID 1933). It counts as functional. Conditions: Homo sapiens.
Assay [9] in a line: cytotoxicity in HEK-293T cells, dose response, cytotoxicity control for TCR NF-kB inhibitor project, luminescence, T-cell screen hits (AID 489026).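 Also: cells exposed to compound about 14 hours before the viability readout.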 It counts as functional, cell-based.
Assay [10] has as its target T3, Sphingosine 1-phosphate receptor 4 (Homo sapiens, UniProt O95977).
T3 sequence (O95977 whole entry): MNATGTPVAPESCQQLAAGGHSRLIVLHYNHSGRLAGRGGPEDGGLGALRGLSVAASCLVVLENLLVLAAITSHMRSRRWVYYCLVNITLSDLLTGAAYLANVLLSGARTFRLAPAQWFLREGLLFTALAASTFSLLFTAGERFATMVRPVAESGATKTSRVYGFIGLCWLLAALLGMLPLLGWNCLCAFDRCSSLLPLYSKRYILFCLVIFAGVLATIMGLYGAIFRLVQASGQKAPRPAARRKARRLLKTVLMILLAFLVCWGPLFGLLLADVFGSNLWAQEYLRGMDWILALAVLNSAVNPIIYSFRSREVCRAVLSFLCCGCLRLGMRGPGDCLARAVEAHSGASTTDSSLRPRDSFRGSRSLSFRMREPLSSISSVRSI
Put plainly: Fluorescence dose response cell-based high throughput screening assay for antagonists of the Sphingosine 1-Phosphate Receptor 4 (S1P4). [Related pubchem assays: 1524 (Confirmation in triplicates.), 1510 (Primary screen.)]. It counts as functional.

Assay [11] relates to BJ. The experiment in a line: cytotoxicity toward BJ-TERT-LT-ST fibroblasts, dose response, cell-based, RAS-independent, luminescence (AID 1935).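 Also: BJ fibroblasts immortalized with TERT plus LT and ST oncogenes.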 It counts as functional. Conditions: Homo sapiens.
Assay [12] deals with Protein-tyrosine kinase 2-beta (Homo sapiens, UniProt Q14289).
Assay [13] can be described thus: cells. It counts as functional.
Assay [14] in a line: Vero E6 cell cytotoxicity, dose response, cytotoxicity control for non-replicating M. tuberculosis project, secondary assay (AID 492998). It counts as functional, VeroE6. Conditions: Vero C1008.
The nature of assay [15]: THP-1 cell cytotoxicity, dose response, cytotoxicity control for non-replicating M. tuberculosis project (AID 489025). It counts as functional.
Assay [16] can be described thus: cells.
Assay [17] can be described thus: cytotoxicity toward NIH3T3 fibroblasts, dose response, counter-screen, cell-based, ATP luminescence, mouse fibroblasts (AID 2010).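 Also: cells exposed to compound for about 90 hours before reading.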 It counts as functional. A general note: The purpose of a counterscreen is to sort out artefacts and off-target activity.
Assay [18] is described as follows: inhibitors of intracellular T. cruzi replication, confirmation, NIH3T3 host cells, beta-gal luminescence (AID 2044).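 Also: intracellular parasites grown in NIH/3T3 mouse fibroblasts as host cells; luminescent beta-galactosidase reporter signal from transgenic T. cruzi replicating inside host cells; inhibitors lower the luminescence signal.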 It counts as functional, cell-based.
Assay [19] in a line: Jurkat T cell cytotoxicity, dose response, cytotoxicity control for P. falciparum gametocyte viability project, luminescence (AID 1117277).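 Also: potency reflects loss of cellular ATP meaning fewer viable cells.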 It counts as functional, cell-based.
The target of assay [20] is Voltage-dependent T-type calcium channel subunit alpha-1H (Homo sapiens, UniProt O95180). It counts as functional.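 Also: channel activity triggered by adding a high calcium stimulation buffer.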
Assay [21] is described as follows: P. falciparum late gametocyte killing, dose response, luminescence (AID 1117278).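 Also: gametocytes exposed to compound for 24 hours.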 It counts as functional, cell-based.
Assay [22] concerns the target T4, Microphthalmia-associated transcription factor (Homo sapiens, UniProt O75030).
T4 sequence (O75030 whole entry): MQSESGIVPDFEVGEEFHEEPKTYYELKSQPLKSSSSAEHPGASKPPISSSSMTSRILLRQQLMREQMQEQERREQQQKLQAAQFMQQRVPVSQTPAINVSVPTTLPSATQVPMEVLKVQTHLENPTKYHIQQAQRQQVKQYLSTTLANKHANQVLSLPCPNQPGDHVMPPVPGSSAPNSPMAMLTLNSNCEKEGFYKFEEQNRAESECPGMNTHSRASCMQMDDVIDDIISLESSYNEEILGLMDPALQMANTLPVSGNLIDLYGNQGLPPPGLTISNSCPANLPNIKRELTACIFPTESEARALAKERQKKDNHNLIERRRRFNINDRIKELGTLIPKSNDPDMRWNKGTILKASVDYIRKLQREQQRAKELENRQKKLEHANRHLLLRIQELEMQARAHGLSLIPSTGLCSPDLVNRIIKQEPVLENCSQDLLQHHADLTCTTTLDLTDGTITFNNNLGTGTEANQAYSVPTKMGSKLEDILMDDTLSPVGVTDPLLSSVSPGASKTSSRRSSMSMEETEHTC
Put plainly: TRPM1 promoter luciferase signal decrease, dose response, MITF inhibitor project, cell-based, SK-MEL-5, cherry-picked, set 3 (AID 493073).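 Also: SK-MEL-5 melanoma cells with luciferase driven by the MITF target TRPM1 promoter.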 It counts as functional.

Assay [23] addresses T5, Estrogen receptor beta (Homo sapiens, UniProt Q92731). The experiment in a line: ERβ–SRC-3 coactivator interaction inhibitors, confirmation, orthogonal assay, biochemical, ELISA, streptavidin-HRP readout (AID 1060).
Assay [24] deals with T5, Estrogen receptor beta.

Chain of Sphingosine 1-phosphate receptor 1 (P21453 whole entry): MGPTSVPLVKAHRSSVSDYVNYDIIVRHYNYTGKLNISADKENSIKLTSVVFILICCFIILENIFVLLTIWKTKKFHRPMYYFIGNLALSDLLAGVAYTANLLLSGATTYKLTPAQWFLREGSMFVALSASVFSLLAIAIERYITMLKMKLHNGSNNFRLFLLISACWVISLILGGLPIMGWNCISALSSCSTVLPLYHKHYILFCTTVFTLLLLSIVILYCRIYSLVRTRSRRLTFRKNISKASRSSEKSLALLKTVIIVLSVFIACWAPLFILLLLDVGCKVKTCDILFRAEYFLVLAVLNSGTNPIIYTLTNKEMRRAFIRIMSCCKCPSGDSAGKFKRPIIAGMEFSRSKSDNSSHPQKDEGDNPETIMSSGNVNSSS
T5 sequence (Q92731 whole entry): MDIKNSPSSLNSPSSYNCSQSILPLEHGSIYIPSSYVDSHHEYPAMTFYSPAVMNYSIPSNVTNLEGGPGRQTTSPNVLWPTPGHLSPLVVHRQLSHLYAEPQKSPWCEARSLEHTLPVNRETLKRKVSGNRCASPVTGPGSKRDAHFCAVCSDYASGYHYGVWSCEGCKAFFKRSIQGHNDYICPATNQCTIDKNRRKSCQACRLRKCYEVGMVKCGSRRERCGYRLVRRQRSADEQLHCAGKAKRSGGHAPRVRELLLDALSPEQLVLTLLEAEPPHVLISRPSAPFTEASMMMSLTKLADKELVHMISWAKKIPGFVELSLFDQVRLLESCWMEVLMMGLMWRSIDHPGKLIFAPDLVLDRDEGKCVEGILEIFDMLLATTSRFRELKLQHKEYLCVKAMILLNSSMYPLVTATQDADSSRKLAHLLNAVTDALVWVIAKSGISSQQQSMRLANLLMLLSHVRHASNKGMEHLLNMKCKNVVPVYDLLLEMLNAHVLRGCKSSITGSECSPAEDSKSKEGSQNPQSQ
Chain of Voltage-dependent T-type calcium channel subunit alpha-1H (O95180 whole entry): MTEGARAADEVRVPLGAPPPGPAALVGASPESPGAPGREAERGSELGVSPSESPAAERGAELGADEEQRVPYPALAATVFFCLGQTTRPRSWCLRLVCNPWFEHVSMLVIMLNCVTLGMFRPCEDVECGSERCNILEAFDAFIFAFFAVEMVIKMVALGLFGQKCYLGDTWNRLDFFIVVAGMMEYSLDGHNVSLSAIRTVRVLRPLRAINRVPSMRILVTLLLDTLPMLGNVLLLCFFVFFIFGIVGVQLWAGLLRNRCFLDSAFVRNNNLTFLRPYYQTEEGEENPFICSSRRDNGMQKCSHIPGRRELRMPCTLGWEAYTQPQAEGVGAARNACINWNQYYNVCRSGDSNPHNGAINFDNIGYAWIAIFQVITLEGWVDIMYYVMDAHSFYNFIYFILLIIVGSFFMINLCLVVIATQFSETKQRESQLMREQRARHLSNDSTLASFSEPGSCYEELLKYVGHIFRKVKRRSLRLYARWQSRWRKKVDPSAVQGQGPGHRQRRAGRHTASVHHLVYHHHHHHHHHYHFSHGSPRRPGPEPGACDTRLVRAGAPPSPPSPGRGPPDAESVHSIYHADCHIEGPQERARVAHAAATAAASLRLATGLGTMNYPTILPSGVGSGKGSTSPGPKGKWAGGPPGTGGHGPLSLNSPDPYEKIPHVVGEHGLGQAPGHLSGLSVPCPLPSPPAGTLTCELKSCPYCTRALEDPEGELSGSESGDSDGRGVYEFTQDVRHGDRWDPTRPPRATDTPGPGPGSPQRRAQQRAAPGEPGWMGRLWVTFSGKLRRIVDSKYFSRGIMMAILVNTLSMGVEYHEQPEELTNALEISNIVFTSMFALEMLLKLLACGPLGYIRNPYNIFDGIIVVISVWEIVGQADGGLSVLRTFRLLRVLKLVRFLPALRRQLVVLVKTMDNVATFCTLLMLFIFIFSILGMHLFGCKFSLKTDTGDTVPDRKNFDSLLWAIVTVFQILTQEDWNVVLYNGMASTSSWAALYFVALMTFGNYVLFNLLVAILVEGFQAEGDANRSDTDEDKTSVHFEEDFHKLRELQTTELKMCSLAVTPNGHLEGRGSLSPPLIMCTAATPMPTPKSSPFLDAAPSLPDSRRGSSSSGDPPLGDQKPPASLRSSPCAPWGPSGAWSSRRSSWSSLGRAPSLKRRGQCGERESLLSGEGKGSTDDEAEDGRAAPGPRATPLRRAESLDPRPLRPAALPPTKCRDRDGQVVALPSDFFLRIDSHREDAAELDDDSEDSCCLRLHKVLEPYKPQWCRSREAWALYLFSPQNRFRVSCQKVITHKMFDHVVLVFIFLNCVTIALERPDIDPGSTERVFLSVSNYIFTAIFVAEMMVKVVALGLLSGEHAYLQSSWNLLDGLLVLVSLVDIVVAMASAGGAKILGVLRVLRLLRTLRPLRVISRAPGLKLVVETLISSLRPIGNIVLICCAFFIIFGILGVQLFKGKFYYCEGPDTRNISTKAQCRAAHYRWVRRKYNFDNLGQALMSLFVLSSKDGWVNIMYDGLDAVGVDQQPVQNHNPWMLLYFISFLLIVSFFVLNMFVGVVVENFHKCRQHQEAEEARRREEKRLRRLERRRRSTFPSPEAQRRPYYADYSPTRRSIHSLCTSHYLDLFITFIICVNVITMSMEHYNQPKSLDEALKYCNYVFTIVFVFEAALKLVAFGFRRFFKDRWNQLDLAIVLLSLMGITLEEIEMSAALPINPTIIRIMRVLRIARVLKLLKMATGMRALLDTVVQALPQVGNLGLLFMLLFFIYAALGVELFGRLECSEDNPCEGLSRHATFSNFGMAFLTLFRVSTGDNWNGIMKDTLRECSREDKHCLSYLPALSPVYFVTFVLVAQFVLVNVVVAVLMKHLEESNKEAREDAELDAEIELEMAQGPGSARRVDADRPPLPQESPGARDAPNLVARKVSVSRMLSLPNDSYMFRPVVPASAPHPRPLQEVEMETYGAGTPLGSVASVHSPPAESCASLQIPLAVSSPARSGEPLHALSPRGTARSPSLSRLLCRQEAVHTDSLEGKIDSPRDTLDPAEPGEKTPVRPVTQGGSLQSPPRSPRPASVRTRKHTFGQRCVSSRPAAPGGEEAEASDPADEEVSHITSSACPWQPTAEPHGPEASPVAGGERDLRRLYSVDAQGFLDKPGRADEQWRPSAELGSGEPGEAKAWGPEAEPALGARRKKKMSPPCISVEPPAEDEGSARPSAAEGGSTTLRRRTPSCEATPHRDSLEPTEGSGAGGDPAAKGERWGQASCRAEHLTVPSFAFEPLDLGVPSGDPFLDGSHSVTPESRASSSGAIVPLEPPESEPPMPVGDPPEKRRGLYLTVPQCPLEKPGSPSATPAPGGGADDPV
Chain of Protein-tyrosine kinase 2-beta (Q14289 whole entry): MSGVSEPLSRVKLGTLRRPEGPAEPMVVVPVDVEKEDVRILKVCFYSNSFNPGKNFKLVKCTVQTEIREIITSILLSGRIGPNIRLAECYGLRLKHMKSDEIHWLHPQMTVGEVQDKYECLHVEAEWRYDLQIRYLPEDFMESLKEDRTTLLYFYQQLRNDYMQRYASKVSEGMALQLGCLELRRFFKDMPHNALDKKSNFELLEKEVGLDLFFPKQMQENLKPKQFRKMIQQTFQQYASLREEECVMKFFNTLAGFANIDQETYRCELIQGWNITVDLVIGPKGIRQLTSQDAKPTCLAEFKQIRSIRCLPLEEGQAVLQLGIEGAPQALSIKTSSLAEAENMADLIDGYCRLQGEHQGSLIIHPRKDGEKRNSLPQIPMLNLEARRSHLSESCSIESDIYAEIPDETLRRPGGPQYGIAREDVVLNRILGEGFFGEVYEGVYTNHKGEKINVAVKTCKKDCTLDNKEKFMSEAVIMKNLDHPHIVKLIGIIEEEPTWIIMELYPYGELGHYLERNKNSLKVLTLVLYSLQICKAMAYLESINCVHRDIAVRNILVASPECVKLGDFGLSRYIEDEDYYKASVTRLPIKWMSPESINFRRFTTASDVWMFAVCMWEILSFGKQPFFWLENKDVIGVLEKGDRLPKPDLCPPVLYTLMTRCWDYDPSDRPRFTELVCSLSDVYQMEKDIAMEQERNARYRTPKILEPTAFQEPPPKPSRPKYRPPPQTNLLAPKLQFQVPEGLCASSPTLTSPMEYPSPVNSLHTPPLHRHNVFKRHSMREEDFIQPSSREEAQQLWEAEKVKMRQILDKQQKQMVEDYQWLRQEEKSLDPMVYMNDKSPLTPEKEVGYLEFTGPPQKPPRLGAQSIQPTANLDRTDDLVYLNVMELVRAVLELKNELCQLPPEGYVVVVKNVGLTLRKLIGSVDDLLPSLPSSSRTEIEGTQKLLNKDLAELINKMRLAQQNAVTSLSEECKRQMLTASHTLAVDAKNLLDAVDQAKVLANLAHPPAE

Regarding `N#Cc1c(NCCO)nc(NCc2ccccc2)c2c1CCN(Cc1ccccc1)C2`, the IC50 in assay [1] and in assay [2] was > 50 µM (not active) throughout.

On to `O=S1(=O)C=C(Sc2nc3ccccc3s2)c2ccccc21`, for which the IC50 (usually the concentration needed to halve the response being measured) is 12.6 µM (not active) in [3], 60.3 µM (inactive) in assay [9] and 0.474 µM (active) in [10]. In addition, the EC50 (usually the concentration that produces a half-maximal response) in [4] was 3.3 µM (active); in the assay with BJ [5], 6.14 µM (inconclusive); in assay [6] it was 3.93 µM (inconclusive); in the assay on BJ [7], 0.13 µM (active); in the assay with BJ [8], 1.23 µM (active); in the assay on BJ [11] it was 1.73 µM (inconclusive). Also, in the assay with INS1, the AC50 (commonly the concentration giving half of the maximal activity seen) was 3.36 µM (active).

On to `Cc1ccc(-c2onc3ccc(C=O)cc23)cc1`, for which the IC50 in [12] is given as 30.1 µM (not active).

Take `CCOC(=O)CNCCC(=O)c1ccc(Br)cc1`: the IC50 in assay [1] is > 50 µM (not active); in assay [2], > 50 µM (not active); in the assay “cells [13]”, 20.4 µM (active).

Take `CCN1CCN(c2ccc(S(=O)(=O)N3CCCCC3)cc2NC(=O)c2ccc([N+](=O)[O-])s2)CC1`: the cytotoxic concentration (CC50) – broadly, the concentration at which the toxic effect on the cells reaches its halfway point – was 8.95 µM (active) in [14] and 10.5 µM (active) in assay [15]. Also, the half-maximal activity concentration (AC50) with INS1 is 3.46 µM (active). For the same molecule, the EC50 in “cells [16]” was 0.052 µM (active); in assay [17], 6.56 µM (active); in [18] it was < 0.1 µM (active). Besides, the IC50 in “cells [13]” is 7.51 µM (active).

Turning to `CCCn1nnc(NC(=O)c2ccc(-c3cccc(Cl)c3)o2)n1`, the figures for the IC50 in [19] and in assay [21] were > 83.4 µM (inactive) and > 109 µM (inactive), respectively. For the same molecule, the EC50 in assay [20] is 6.81 µM (active).

Turning to `CC(=O)Cn1ncc(Br)c(Br)c1=O`, the IC50 was 16.6 µM (not active) in assay [3] and 4.22 µM (active) in [10]. The EC50 in [17] was 0.976 µM (active); in assay [6], 12.4 µM (active); in assay [18], 1.24 µM (active). Moreover, the concentration at half-maximal activity (AC50) in assay [22] was 15.8 µM (active).

Turning to `O=C(Nc1cccc2cccc(NC(=O)c3ccco3)c12)c1ccco1`, the values for the half-inhibitory concentration (IC50) at Estrogen receptor beta [23] and at Estrogen receptor beta [24] were > 50 µM (not active) and 15.5 µM (active), respectively.
